Laboratory results reported in patent publication US11186566B2, “Modulator of cystic fibrosis transmembrane conductance regulator, pharmaceutical compositions, methods of treatment, and process for making the modulator” (Vertex Pharmaceuticals Incorporated, priority 2016, dated 2021).
Entries after “also recorded” stand apart in the source; their conditions may differ. Read-outs that look alike come from different tables or passages of the source.

Key:
[1] = Metabolism of Compound 1 in vitro and in vivo
Experimental: Compound 1 and the metabolites shown in the following table were prepared and tested.

[2] = biological target: T1, F508del-CFTR (Homo sapiens (Human), UniProt P13569, DEL508-508); assay: Membrane potential optical (fluorescent voltage sensing dye, FLIPR III) HTS assay for F508del-CFTR modulators; assay type: cell-based
T1 sequence (P13569 other isoform, or with tags, fused parts or gaps del F508-F508): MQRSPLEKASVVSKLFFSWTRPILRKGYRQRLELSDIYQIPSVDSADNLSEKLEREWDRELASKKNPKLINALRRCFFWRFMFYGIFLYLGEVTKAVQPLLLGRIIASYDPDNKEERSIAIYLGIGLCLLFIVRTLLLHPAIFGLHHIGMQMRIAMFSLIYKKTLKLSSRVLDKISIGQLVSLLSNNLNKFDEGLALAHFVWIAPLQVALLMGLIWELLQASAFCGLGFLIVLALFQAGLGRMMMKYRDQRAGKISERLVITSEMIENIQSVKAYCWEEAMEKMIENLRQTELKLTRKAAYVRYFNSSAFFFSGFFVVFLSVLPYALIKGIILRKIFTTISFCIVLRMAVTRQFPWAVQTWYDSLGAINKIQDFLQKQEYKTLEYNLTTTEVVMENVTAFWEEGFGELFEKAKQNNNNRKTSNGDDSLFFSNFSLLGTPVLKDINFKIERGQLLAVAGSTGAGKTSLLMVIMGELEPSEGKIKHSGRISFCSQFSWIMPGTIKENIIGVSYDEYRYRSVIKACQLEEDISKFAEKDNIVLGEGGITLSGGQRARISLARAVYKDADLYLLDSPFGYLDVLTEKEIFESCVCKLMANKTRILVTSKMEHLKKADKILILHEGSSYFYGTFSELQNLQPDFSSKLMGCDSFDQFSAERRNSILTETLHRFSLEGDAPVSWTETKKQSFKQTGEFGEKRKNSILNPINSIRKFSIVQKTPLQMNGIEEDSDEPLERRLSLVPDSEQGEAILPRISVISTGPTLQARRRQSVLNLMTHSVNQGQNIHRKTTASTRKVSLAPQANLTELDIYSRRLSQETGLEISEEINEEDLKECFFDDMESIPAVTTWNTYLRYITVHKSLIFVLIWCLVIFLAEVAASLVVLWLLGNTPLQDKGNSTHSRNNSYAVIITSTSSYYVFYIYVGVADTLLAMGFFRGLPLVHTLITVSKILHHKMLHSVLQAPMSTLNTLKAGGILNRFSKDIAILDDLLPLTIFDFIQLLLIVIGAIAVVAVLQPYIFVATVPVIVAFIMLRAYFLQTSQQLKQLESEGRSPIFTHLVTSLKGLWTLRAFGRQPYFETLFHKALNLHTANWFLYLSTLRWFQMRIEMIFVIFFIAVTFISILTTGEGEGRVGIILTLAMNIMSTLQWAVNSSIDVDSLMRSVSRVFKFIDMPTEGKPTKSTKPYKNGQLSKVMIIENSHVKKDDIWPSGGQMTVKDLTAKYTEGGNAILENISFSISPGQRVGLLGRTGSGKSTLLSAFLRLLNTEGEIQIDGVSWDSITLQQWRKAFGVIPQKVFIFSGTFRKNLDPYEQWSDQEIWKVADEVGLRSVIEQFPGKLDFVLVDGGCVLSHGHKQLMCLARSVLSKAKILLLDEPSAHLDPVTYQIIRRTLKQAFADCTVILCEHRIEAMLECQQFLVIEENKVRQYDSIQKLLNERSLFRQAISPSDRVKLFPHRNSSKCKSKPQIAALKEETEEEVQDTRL
How it was run: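 NIH3T3 mouse fibroblasts stably expressing F508del-CFTR were seeded on matrigel-coated plates for 18–24 h at 37 °C. For correction assays they were cultured with or without compound for that period. Membrane potential was read on FLIPR III with voltage-sensing dyes, using a pH 7.4 NaCl/HEPES bath and a chloride-free gluconate substitute solution.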

[3] = biological target: T1, F508del-CFTR; assay: F508del-CFTR processing and trafficking in vitro (170 to 180 kDa band); assay type: cell-based; conditions: for increase in steady-state levels, fold of untreated levels: F508del/F508del-HBE cells, 16 to 24 hours
Description: The CFTR protein delivered to the cell surface by Compound 1 alone or in combination with Compound II (Compound I/Compound II) was potentiated by Compound III.

[4] = biological target: T1, F508del-CFTR; assay: Ussing chamber chloride transport experiments in HBE cells; assay type: cell-based; conditions: Ussing Chamber, F508del/F508del-HBE cells
Experimental: Ussing chamber experiments were performed on polarized airway epithelial cells expressing F508del to further characterize the F508del modulators identified in the optical assays. Non-CF and CF airway epithelia were isolated from bronchial tissue, cultured as previously described (Galietta, L. J. V., Lantero, S., Gazzolo, A., Sacco, O., Romano, L., Rossi, G. A., & Zegarra-Moran, O. (1998) In Vitro Cell. Dev. Biol. 34, 478-481), and plated onto Costar® Snapwell™ filters that were precoated with NIH3T3-conditioned media. After four days the apical media was removed and the cells were grown at an air liquid interface for >14 days prior to use. […] CF-HBE were isolated from patients homozygous for […] or compound heterozygous for F508del with an different disease causing mutation on the other allele.
HBE grown on Costar® Snapwell™ cell culture inserts were mounted in an Ussing chamber (Physiologic Instruments, Inc., San Diego, Calif.), and the transepithelial resistance and short-circuit current in the presence of a basolateral to apical Cl^− gradient (ISC) were measured using a voltage-clamp system (Department of Bioengineering, University of Iowa, Iowa). Briefly, HBE were examined under voltage-clamp recording conditions (Vhold=0 mV) at 37° C. The basolateral solution contained (in mM) 145 NaCl, 0.83 K2HPO4, 3.3 KH2PO4, 1.2 MgCl2, 1.2 CaCl2, 10 Glucose, 10 HEPES (pH adjusted to 7.35 with NaOH) and the apical solution contained (in mM) 145 NaGluconate, 1.2 MgCl2, 1.2 CaCl2, 10 glucose, 10 HEPES (pH adjusted to 7.35 with NaOH).
Typical protocol utilized a basolateral to apical membrane Cl^− concentration gradient. To set up this gradient, normal ringers was used on the basolateral membrane, whereas apical NaCl was replaced by equimolar sodium gluconate (titrated to pH 7.4 with NaOH) to give a large Cl^− concentration gradient across the epithelium. Modulators were added either to the basolateral side […] to assay or to the apical side during the assay. Forskolin (10 μM) was added to the apical side during the assay to stimulate CFTR-mediated Cl^− transport. […]

[5] = Rat IV and PO PK studies; assay type: in vivo, male Sprague-Dawley rats; conditions: male, Sprague-Dawley, plasma
[6] = biological target: human PXR (Homo sapiens (Human), UniProt O75469); assay: PXR assay (PXR mediated CYP3A4 induction, DPX-2 cell line); assay type: cell-based; conditions: DPX-2 cells, 48 hours, 0.1 to 60 μM
Sequence of human PXR (O75469 whole entry): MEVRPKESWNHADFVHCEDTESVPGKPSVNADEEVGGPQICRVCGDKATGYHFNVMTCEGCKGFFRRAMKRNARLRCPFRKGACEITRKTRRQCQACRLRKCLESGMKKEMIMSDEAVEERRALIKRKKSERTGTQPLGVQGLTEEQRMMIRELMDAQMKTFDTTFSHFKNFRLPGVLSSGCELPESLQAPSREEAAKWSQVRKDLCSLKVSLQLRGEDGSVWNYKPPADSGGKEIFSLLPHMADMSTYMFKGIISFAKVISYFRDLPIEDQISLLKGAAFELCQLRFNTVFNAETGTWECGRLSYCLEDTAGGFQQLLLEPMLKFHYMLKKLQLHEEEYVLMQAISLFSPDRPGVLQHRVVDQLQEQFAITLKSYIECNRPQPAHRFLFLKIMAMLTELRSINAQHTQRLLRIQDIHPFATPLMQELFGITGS
How it was run: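 HepG2-derived DPX-2 cells stably carrying human PXR and a CYP3A4 promoter–luciferase reporter, exposed 48 h to 11 doses (0.1–60 μM); rifampicin positive control. Viability by fluorescence, then luciferase luminescence; reports max fold induction over vehicle and EC50.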

Which results are given for `C[C@@H]1CN(c2nc(-n3ccc(OCCC4(C(F)(F)F)CC4)n3)ccc2C(=O)NS(=O)(=O)c2ccccc2)C(C)(C)C1` [Compound 1, N-(benzenesulfonyl)-6-[3-[2-[1-(trifluoromethyl)cyclopropyl]ethoxy]pyrazol-1-yl]-2-[(4S)-2,2,4-trimethylpyrrolidin-1-yl]pyridine-3-carboxamide]?
metabolism [1]: metabolized both in vitro and in vivo, mostly by oxidative metabolism; EC50 ([2]; F508del NIH 3T3 cells, assay 5A-A1, read-out: CFTRdF508 EC50): < 100 nM; EC50 ([2]; F508del NIH 3T3 cells, assay 5A-A1, read-out: EC50): < 3000 nM; Emax ([2]; NIH3T3, F508del NIH 3T3 cells, relative to Compound II, read-out: % Efficacy relative to Compound II): ≥ 100%; EC50 ([2]; Table 7, Compound 1 and metabolites, read-out: CFTRdF508 EC50): 30 nM; EC50 ([2]; Table 9, read-out: CFTR dF508 EC50): 30 nM; increase in steady-state levels, fold of untreated levels [3]: 6.5 fold; increase in steady-state levels, fold of untreated levels ([3]; Compound 1 in combination with 3 μM Compound II): 18.7 fold; processing and trafficking of F508del-CFTR ([3]; in vitro): improved the processing and trafficking of F508del-CFTR; also recorded: facilitates the processing and trafficking of F508del-CFTR; chloride transport [4]: enhanced chloride transport; effect on chloride transport in relation to the effect of Compound II [4]: additive to the effect of Compound II; bioavailability ([5]; 3 mg/kg, oral, read-out: Rat po % F): 63%; clearance ([5]; intravenous, 3.0 mg/kg, read-out: Rat iv CL): 1.6 mL/min/kg; AUC ([5]; oral, 3 mg/kg): 21000 ng·h/mL; PXR Max Induction (% of rifampicin) [6]: 3 % of rifampicin
